{
  "source": "patent US9452226B2",
  "about": "“Rodent model of central neuropathic pain caused by dorsal root entry zone avulsion at T13” (priority 2008, dated 2016)",
  "key": {"[1]": {"system": "rats having DREZs avulsed at T13/L1", "assay": "von Frey allodynia test in T13/L1 DREZ avulsion rat model, intrathecal ibudilast (Example 2)", "type": "in vivo", "settings": "intrathecally daily in corn oil carrier; unilateral (FIG. 2) or bilateral (FIG. 3) DREZ avulsion; vs sham controls receiving corn oil", "description": "Rats were anesthetized using isoflurane. Under aseptic condition, the skin was incised in the midline along the posterior thoracolumbar region. The paravertebral muscles were retracted laterally to expose the posterior aspect of the spinal laminae. Laminectomies were performed and the dura mater then incised along the midline to expose the dorsal rootlets 10 of T13 and L1. The dorsal rootlets of T13 and L1 were then avulsed out of the spinal cord 15 on the left side using micronstrumentation 5 (see FIG. 4B). A visual defect 25 in pia and dorsal cord where the rootlets 10 were avulsed can be seen in FIG. 4B. The grey matter 30 of the spinal cord 15 is also shown. Hemostasis was obtained and a layer of gelfoam placed over the dura. The wound was closed in layers. Perioperative antibiotics were administered in prophylaxis against infection. Subject rats were tested for allodynia of the hindpaws with the von Frey hair test, beginning day one post surgery and continuing daily over the subsequent four weeks. Rat animal model was generated similar to above. In one experiment, DREZ avulsion was unilateral (FIG. 2). In one experiment, DREZ avulsion was bilateral (FIG. 3). Ibudilast was delivered intrathecally daily in a corn oil carrier, with sham controls receiving only the corn oil."}, "[2]": {"system": "rats with unilateral T13/L1 dorsal root avulsion", "assay": "von Frey test after unilateral T13/L1 dorsal root avulsion, daily s.c. AV411 (Example 5)", "type": "in vivo, rat", "description": "The dorsal spinal cord was exposed by laminectomy at the T13/L1 spinal level. The T13 and L1 dorsal roots were each isolated, clamped at the dorsal root entry zone (DREZ) and briskly pulled out of the spinal cord as described above. AV411 was administered to animals avulsed at the T13 and L1 dorsal root entry zones. The compound AV411 was administered to animals subject to the T13 and L1 hind paws. […] The reversal begins after 5-6 injections and continues to reverse behavior until day 33. The contralateral paw began to resolve at day 28 and the ipsilateral paw was still sensitive at day 33. […] Response thresholds on the von Frey test were recorded prior to and across a timecourse after avulsion surgery. Beginning on Day 12 post-surgery, rats (n=4/group) received once daily s.c. injections of either the glial activation inhibitor AV411/Ibudilast (Sigma; 5-mg/kg or 10-mg/kg) or equivolume vehicle (corn oil; 0.5-ml/kg). Daily drug treatment and intermittent behavioral testing continued through 33 days after surgery."}},
  "note": "“Also recorded” adds a separate entry of the source.",
  "data": [
    {"smiles": "CC(C)C(=O)c1c(C(C)C)nn2ccccc12", "note": "[AV411, 2-methyl-1-(2-propan-2-ylpyrazolo[1,5-a]pyridin-3-yl)propan-1-one]", "values": [
      {"measurement": "effect on allodynia in the model", "setting": "[1]", "value": "decreases allodynia"},
      {"measurement": "difference between the 5 mg and 10 mg dose", "setting": "[2]; allodynia reversal, daily s.c.", "value": "not differences"},
      {"measurement": "reversal of behavior continues until", "setting": "[2]; days after surgery, daily s.c. treatment through day 33", "value": 33, "unit": "days"},
      {"measurement": "effect on allodynia induced by avulsion (von Frey response thresholds)", "setting": "[2]; once daily s.c. 5-mg/kg or 10-mg/kg from Day 12 post-surgery through day 33, vs corn oil vehicle", "value": "reversed allodynia; also recorded: reverses bilateral allodynia"},
      {"measurement": "effect of administering AV411 on hind paw mechanical allodynia as printed", "setting": "[2]; unilateral T13/L1 dorsal root avulsion, lasting upwards of 1.5 months", "value": "induces bilateral mechanical allodynia"}
    ]}
  ]
}
